# Entries after “also recorded” stand apart in the source; their conditions may differ. Where two headings read alike, the source gives them in different places.
# How the values were obtained:
# porcine hepatocytes = test: IL-6 production, porcine IL-6 ELISA; assay type: cell-based; conditions: S. suis 10^4 CFU/mL in combination with inhibitor, 24 h
# Description: (§1) After 24 h incubation time, the cell-free supernatants from […], MI-471, and MI-476 exposure were sampled from IPEC-J2 cells and from porcine hepatocytes. The changes in cytokine levels were detected with porcine IL-6 ELISA kits. The manufacturer’s instructions were followed to treat the supernatants and measured by a SpectraMax iD3 microplate reader at 450 nm.
# IPEC-J2 cells [1] = test: IL-6 production, porcine IL-6 ELISA; assay type: cell-based; conditions: IPEC-J2, S. suis 10^4 CFU/mL in combination with inhibitor, 24 h
# Description: as §1
# [2] = system: Staphylococcus (S.) aureus (ATCC 10832); test: MIC measurement (broth microdilution); assay type: cell-based; conditions: source ATCC, 18–24 h at 37 °C
# [3] = system: Burkholderia (B.) cepacia (clinical isolate); test: MIC measurement (broth microdilution); assay type: cell-based
# [4] = system: primary porcine hepatocytes; test: Cell viability, Neutral red assay; assay type: cell-based; conditions: S. suis 10^4 CFU/mL in combination with inhibitor 50 µM, 24 h
# Description: Porcine cryopreserved primary hepatocytes were obtained from Primacyt Cell Culture Company (Schwerin, Germany). Lonza Group Ltd. (Biocenter Ltd., Szeged, Hungary) supplied the thawing, plating, and maintenance media. The cytotoxic effects of inhibitors MI-432, MI-471, and MI-476 were tested on the viability of primary hepatocytes using the NR method. The hepatocytes were cultivated on a 96-well plate for 24 h, followed by incubation with the inhibitors at 0, 50, and 100 µM for an additional 24 h. Only cell maintenance medium was used to incubate the control cells. The plate underwent incubation together with NR dye for 2 h. Hepatocyte viability was recorded at 540 nm with a SpectraMax iD3 microplate reader.
# IPEC-J2 cells [5] = test: Cell viability, Neutral red assay; assay type: cell-based, porcine; conditions: IPEC-J2, S. suis 10^4 CFU/mL in combination with inhibitor 50 µM, 24 h
# From the text: The IPEC-J2 cell line is unique as it is non-transformed and non-tumorigenic. IPEC-J2 cells are derived from intestinal enterocytes extracted from the jejunum of neonatal unsuckled piglets. IPEC-J2 cells were gifted by Dr. Jody Gookin (Department of Clinical Sciences, College of Veterinary Medicine, North Carolina State University, Raleigh, NC, USA). […] The cells had undergone passage around 50 times. […] This experiment included plain DMEM/F12 medium as a control. At the end of the final treatments (24 h), the ratio of viable cells was measured by absorbance at 540 nm wavelength with a SpectraMax iD3 microplate reader.
# IPEC-J2 cells [6] = test: EC H2O2 production, Amplex red method; assay type: cell-based, porcine; conditions: 24 h
# Description: For oxidative status measurements, inhibitors MI-432, MI-471, or MI-476 were used at 50 µM in the absence and presence of S. suis for 24 h in IPEC-J2 cells and in primary porcine hepatocytes on 24-well plates. An Amplex red hydrogen peroxide assay kit was used to monitor EC hydrogen peroxide (H₂O₂) production in IPEC-J2 cells and in hepatocytes. Following the manufacturer’s instructions, cell-free supernatants were collected and mixed with the Amplex red working solution (in a ratio of 1:1). A Victor X2 2030 fluorometer was used to detect fluorescence intensity at wavelengths 530 nm and 590 nm for excitation and emission, respectively.
# S. suis serotype 2 = test: MIC measurement (broth microdilution); assay type: cell-based, Streptococcus suis; conditions: source 672/22, 18–24 h at 37 °C
# [7] = system: Escherichia (E.) coli (ATCC 11775); test: MIC measurement (broth microdilution); assay type: cell-based; conditions: source ATCC, 18–24 h at 37 °C
# SARS-CoV-2 = system: SARS-CoV-2; parameters: method as in PMID 32703818; conditions: human airway cells, synergistically in combination with furin inhibitor MI-1851; cited from earlier work
# [8] = system: Salmonella (S.) enterica (clinical isolate); test: MIC measurement (broth microdilution); assay type: cell-based; conditions: source 204/22, 18–24 h at 37 °C
# From the text: Bacterial strains used in this study were as follows: S. suis serotype 2 (ATCC 958242) Staphylococcus (S.) aureus (ATCC 10832), Escherichia (E.) coli (ATCC 11775), Pseudomonas (P.) aeruginosa (ATCC 27853), Pasteurella (P.) multocida (clinical isolate), Burkholderia (B.) cepacia (clinical isolate), Salmonella (S.) enterica (clinical isolate), and Enterococcus (E.) faecalis (clinical isolate). Of the clinical isolates used in this study, P. multocida is of porcine origin, B. cepacia is of human origin, and S. enterica and E. faecalis are of poultry origin. The bacterial strains were stored in the Microbiology Laboratory of the University of Veterinary Medicine, Budapest, at a temperature of −80 °C. Bacterial strains were inoculated the day before the test in 5 mL of Cation-Adjusted Mueller–Hinton Broth (CAMHB) and incubated for 18–24 h at 37 °C. The initial inoculum concentration used for the MIC assay was 5 × 10^5/mL. All wells except the first column of the working plates were filled with 90 µL CAMHB. A stock solution of inhibitors at 800 µM was then prepared, 180 µL of which was measured into the first column of plates and used to prepare a 2-based dilution on 96-well plates. After the 10th column, the tips were discarded with the 90 µL excess solution so that each column contained 90 µL of solution. Each bacterial strain was tested in a single row on the working plates. A bacterial suspension diluted to 25× was prepared on an auxiliary plate for bacterial inoculation by loading 240 µL of TSB per column of plates and adding 10–10 µL of bacterial strain suspension per well. In the next step, the isolated bacterial strains were inoculated onto the plates. Starting from column 11 (positive control) of the plates containing dilution row 2, 10 µL of bacterial suspension was added to each well, working backward. Column 11 served as a positive control (containing only bacterial suspension and broth), while column 12 served as a negative control (containing only broth). The microplates were then incubated at 37 °C for 18–24 h, and the MIC values were assessed in comparison to positive controls.
# [9] = system: Enterococcus (E.) faecalis (clinical isolate); test: MIC measurement (broth microdilution); assay type: cell-based
# monkey CYP1A2 enzymes = conditions: cited from earlier work
# [10] = system: Pseudomonas (P.) aeruginosa (ATCC 27853); test: MIC measurement (broth microdilution); assay type: cell-based; conditions: source ATCC, 18–24 h at 37 °C
# [11] = system: Pasteurella (P.) multocida (clinical isolate); test: MIC measurement (broth microdilution); assay type: cell-based; conditions: source 380/22, 18–24 h at 37 °C
# [12] = system: S. suis strains isolated from pigs; conditions: cited from earlier work; for S. suis strains found to be sensitive: strains isolated from pigs, European VetPath survey 2005–2012; for S. suis strains sensitive: same survey (VetPath)
# CYP2D6 = CYP2D6 (Homo sapiens, UniProt P10635); test: CYP enzyme fluorometric activity measurement, human hepatic microsomes; conditions: reference inhibitor at 3 µM; p < 0.05
# Sequence of CYP2D6 (P10635 whole entry): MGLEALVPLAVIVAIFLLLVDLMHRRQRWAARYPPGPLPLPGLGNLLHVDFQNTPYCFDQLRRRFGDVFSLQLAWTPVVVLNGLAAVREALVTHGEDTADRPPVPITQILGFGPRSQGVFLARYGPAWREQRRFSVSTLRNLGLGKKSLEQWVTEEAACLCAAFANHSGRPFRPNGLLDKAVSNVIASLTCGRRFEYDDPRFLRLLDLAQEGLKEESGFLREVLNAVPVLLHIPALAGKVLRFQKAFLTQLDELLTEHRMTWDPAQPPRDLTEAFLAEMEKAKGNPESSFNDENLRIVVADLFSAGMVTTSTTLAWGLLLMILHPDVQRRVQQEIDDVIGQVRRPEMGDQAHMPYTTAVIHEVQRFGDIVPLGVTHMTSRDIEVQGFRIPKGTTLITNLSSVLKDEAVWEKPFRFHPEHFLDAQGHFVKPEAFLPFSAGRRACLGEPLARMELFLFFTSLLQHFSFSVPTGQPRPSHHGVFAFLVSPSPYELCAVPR
# Description: (§2) The Biovision CYP assays (BioVision, Inc., Kampenhout, Belgium) employ non-fluorescent CYP2D6, 2C9, 2C19, 1A2, or 3A4 substrates able to undergo transformation into highly fluorescent detectable metabolites. […] Human hepatic microsomal supernatants were prepared (Gibco, Biocentre, Szeged, Hungary protein concentration: 20 mg/mL) separately by mixing 30 µL with 2425 µL assay buffer and with 50 µL nicotinamide adenine dinucleotide phosphate (NADPH) generating system (100×). […] Control measurements were performed in the absence of the inhibitors.
# (§3) In background controls, only assay buffer excluding microsomes and test compounds was used in a volume of 70 µL. Subsequently, after incubation at 37 °C for 15 min, 30 µL of the suitable CYP substrate/NADP+ mixture was incorporated into each well, resulting in a final reaction volume of 100 µL/well. The obtained microsomal protein content was assessed using the bicinchoninic acid protein assay kit (Pierce BCA kit, Thermo Fisher Scientific, Waltham, MA, USA). In each assay, the microsomal protein concentration was calibrated to 100 µg/well. The fluorescence intensities were measured with a fluorometer (Victor X2 2030, Perkin Elmer, Waltham, MA, USA) using λex/em = 406/468 nm for CYP1A2 and for CYP2C19, λex/em = 415/502 nm for CYP2C9, λex/em = 390/468 nm for CYP2D6, and λex/em = 535/587 nm for CYP3A4 assays.
# CYP1A2 = molecular target: T1, CYP1A2 (Homo sapiens, UniProt P05177); test: as above; conditions: reference inhibitor at 6 µM; p < 0.001
# T1 sequence (P05177 1-516): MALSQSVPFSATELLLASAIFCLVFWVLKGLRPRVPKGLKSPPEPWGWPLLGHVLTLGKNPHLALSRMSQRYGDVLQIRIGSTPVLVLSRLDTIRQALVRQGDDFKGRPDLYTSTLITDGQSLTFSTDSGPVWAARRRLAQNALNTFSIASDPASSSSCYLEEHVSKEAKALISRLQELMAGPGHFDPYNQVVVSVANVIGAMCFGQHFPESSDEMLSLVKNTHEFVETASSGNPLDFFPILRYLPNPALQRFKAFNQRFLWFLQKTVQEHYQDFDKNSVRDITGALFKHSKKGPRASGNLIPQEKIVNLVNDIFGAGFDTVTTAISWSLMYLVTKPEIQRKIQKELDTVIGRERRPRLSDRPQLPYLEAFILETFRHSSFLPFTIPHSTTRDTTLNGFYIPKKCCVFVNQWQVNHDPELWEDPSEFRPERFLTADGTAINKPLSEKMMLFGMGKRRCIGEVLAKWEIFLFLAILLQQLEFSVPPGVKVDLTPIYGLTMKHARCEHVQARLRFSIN
# Description: as §2, §3
# [13] = B. cepacia, source 20-10299, 18–24 h at 37 °C, read-out: MIC
# [14] = E. fecalis, source 442, 18–24 h at 37 °C, read-out: MIC
molecule,measurement,setting,value
N=C(N)c1cccc(C[C@H](NS(=O)(=O)c2cccc(-c3ccc(Cl)cc3Cl)c2)C(=O)N2CCC(CCN)CC2)c1 [MI-432],IL-6 levels,porcine hepatocytes,significant anti-inflammatory effects
same,IL-6 levels,IPEC-J2 cells [1],significant anti-inflammatory effects
same,MIC,[2]; read-out: MIC,50 µM
same,MIC,[3],800 µM
same,cell viability,[4],significantly decreased cell viability; also recorded: reduction in the number of viable cells
same,cell viability,IPEC-J2 cells [5],slightly less worsening of the cells; also recorded: reduction in the number of viable cells
same,EC H2O2 production,"IPEC-J2 cells [6]; IPEC-J2, S. suis 10^4 CFU/mL in combination with inhibitor 50 µM",unchanged H₂O₂ production; also recorded: antioxidant properties
same,EC H2O2 production,"IPEC-J2 cells [6]; IPEC-J2, inhibitor alone 50 µM",unchanged H₂O₂ production
same,MIC,S. suis serotype 2; Streptococcus suis,1.5 µM
same,MIC,S. suis serotype 2,< 1.5625 µM
same,MIC,S. suis serotype 2; listed as 432,<1.5625 µM
same,MIC,[7],> 800 µM
same,efficacy against SARS-CoV-2,SARS-CoV-2,effective
same,MIC,[8],> 800 µM
same,MIC,[9]; Enterococcus,> 800 µM
same,inhibition of monkey CYP1A2 enzymes,monkey CYP1A2 enzymes,significant inhibition
COc1ccc(-c2cccc(S(=O)(=O)N[C@@H](Cc3cccc(C(=N)N)c3)C(=O)N3CCC(N)CC3)c2)c(OC)c1 [MI-472],MIC,[2]; read-out: MIC,800 µM
same,MIC,[10],>800 µM
same,MIC,[3]; [13],800 µM
same,MIC,S. suis serotype 2,50 µM
same,MIC,[7],>800 µM
same,MIC,[8],>800 µM
same,MIC,[9]; [14],>800 µM
same,MIC,[11],400 µM
COc1ccc(-c2cccc(S(=O)(=O)N[C@@H](Cc3cccc(C(=N)N)c3)C(=O)N3CCC(NC(=O)NC(C)(C)C)CC3)c2)c(OC)c1 [MI-485],MIC,[2],100 to 200 µM
same,MIC,[2]; read-out: MIC,200 µM
same,MIC,[10],>800 µM
same,MIC,[3]; [13],800 µM
same,MIC,S. suis serotype 2,50 µM
same,MIC,[7],>800 µM
same,MIC,[8],>800 µM
same,MIC,[9]; [14],>800 µM
same,MIC,[11],>800 µM
"COc1ccc(-c2cccc(S(=O)(=O)N[C@@H](Cc3cccc(C(=N)N)c3)C(=O)N3CCN(C(=O)NC4CCCCC4)CC3)c2)c(OC)c1 [MI-1900, reference compound]",efficacy against SARS-CoV-2,SARS-CoV-2,effective
CO/N=C(\C(=O)N[C@@H]1C(=O)N2C(C(=O)O)=C(CSC(=O)c3ccco3)CS[C@H]12)c1csc(N)n1 [ceftiofur],S. suis strains found to be sensitive,[12],97%
CCN1CCN(c2cc3c(cc2F)c(=O)c(C(=O)O)cn3C2CC2)CC1 [enrofloxacin],S. suis strains sensitive,[12],more than 95%
CS(=O)(=O)c1ccc([C@@H](O)[C@@H](CF)NC(=O)C(Cl)Cl)cc1 [florfenicol],S. suis strains sensitive,[12],more than 95%
C=C[C@H]1C[N@@]2CC[C@H]1C[C@@H]2[C@@H](O)c1ccnc2ccc(OC)cc12 [quinidine],CYP2D6 activity,CYP2D6,significantly suppressed
CN(C)[C@@H]1C(O)=C(C(N)=O)C(=O)[C@@]2(O)C(O)=C3C(=O)c4c(O)cccc4[C@@](C)(O)[C@H]3C[C@@H]12 [tetracycline],S. suis strains sensitive,[12],4%
"O=c1cc(-c2ccccc2)oc2c1ccc1ccccc12 [α-naphthoflavone, reference compound]",CYP1A2 activity,CYP1A2,significantly suppressed
amoxicillin–clavulanic acid,S. suis strains found to be sensitive,[12],100%
